Tests used:
[1] = system: E. faecium CL 4931 (VanA); test: microbe, parasite or virus in culture; type: cell-based; design: CL4931 (in vitro testing): unit not given here; settings: Tables 7 and 8; unit not given
Procedure, shortened: (§1)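 NCCLS M7-A4-based broth microdilution with twofold serial dilutions, incubated at 35° C; medium BHI for enterococci and VISA/MRSA, cation-adjusted Mueller-Hinton for E. coli. Inoculum about 1-5×10^6 CFU/ml (enterococci) or 3-7×10^5 CFU/ml (others); MIC is lowest concentration with no visible growth, read at 18-20 hr for E. coli, 22-24 hr otherwise.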

[2] = system: E. faecium CL 5053 (VanA); test: microbe, parasite or virus in culture; type: cell-based; design: CL5053 (in vitro testing): unit not given here; settings: Tables 7 and 8; unit not given
Procedure, shortened: as §1

[3] = system: E. faecium CL 5242 (VanA); test: microbe, parasite or virus in culture; type: cell-based; design: CL5242 (in vitro testing): unit not given here; settings: Tables 7 and 8; unit not given
Procedure, shortened: as §1

[4] = system: E. faecalis CL 4877 (VanB); test: microbe, parasite or virus in culture; type: cell-based; design: CL4877 (in vitro testing): unit not given here; settings: Tables 7 and 8; unit not given
Procedure, shortened: (§2)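 NCCLS-based microdilution, 35 °C. Media: BHI for VanB E. faecalis and VISA/MRSA, MH II for E. coli envA-. Inoculum: enterococci ~1-5×10^6 CFU/ml, others ~3-7×10^5 CFU/ml. Growth read at 22-24 hr (E. coli 18-20 hr).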

[5] = system: CL 4931, CL 5053, CL 5242 and CL 4877; type: cell-based, E. faecium, E. faecalis; design: unit not given here; settings: mean of CL4931, CL5053, CL5242, CL4877; unit not given
Procedure, shortened: as §2

Compound | CL4931 (in vitro testing) [1] | CL5053 (in vitro testing) [2] | CL5242 (in vitro testing) [3] | CL4877 (in vitro testing) [4] | Mean [5]
CNC(CC(C)C)C(=O)NC1C(=O)NC(CC(N)=O)C(=O)NC2C(=O)NC3C(=O)NC(C(=O)NC(C(=O)O)c4cc(O)cc(O)c4-c4cc3ccc4O)C(O)c3ccc(c(Cl)c3)Oc3cc2cc(c3OC2OC(CN)C(O)C(O)C2OC2CC(C)(NCc3ccc(OCc4c(Cl)cccc4Cl)cc3)C(O)C(C)O2)Oc2ccc(cc2Cl)C1O (stereo not shown) [Compound 176] | 16 | 16 | 4 | >16 | 13
CNC(CC(C)C)C(=O)NC1C(=O)NC(CC(N)=O)C(=O)NC2C(=O)NC3C(=O)NC(C(=O)NC(C(=O)O)c4cc(O)cc(O)c4-c4cc3ccc4O)C(O)c3ccc(c(Cl)c3)Oc3cc2cc(c3OC2OC(CN)C(O)C(O)C2OC2CC(C)(NCc3ccc(OCc4ccc(C(=O)OC)cc4)cc3)C(O)C(C)O2)Oc2ccc(cc2Cl)C1O (stereo not shown) [Compound 177] | >16 | >16 | 4 | >16 | 13
CNC(CC(C)C)C(=O)NC1C(=O)NC(CC(N)=O)C(=O)NC2C(=O)NC3C(=O)NC(C(=O)NC(C(=O)O)c4cc(O)cc(O)c4-c4cc3ccc4O)C(O)c3ccc(c(Cl)c3)Oc3cc2cc(c3OC2OC(CN)C(O)C(O)C2OC2CC(C)(NCc3ccc(OCc4ccc([N+](=O)[O-])cc4)cc3)C(O)C(C)O2)Oc2ccc(cc2Cl)C1O (stereo not shown) [Compound 178] | 32 | >32 | 8 | >32 | 27
CNC(CC(C)C)C(=O)NC1C(=O)NC(CC(N)=O)C(=O)NC2C(=O)NC3C(=O)NC(C(=O)NC(C(=O)O)c4cc(O)cc(O)c4-c4cc3ccc4O)C(O)c3ccc(c(Cl)c3)Oc3cc2cc(c3OC2OC(CN)C(O)C(O)C2OC2CC(C)(NCc3ccc(OCc4ccc(C(F)(F)F)cc4)cc3)C(O)C(C)O2)Oc2ccc(cc2Cl)C1O (stereo not shown) [Compound 179] | 8 | 8 | 1 | 4 | 3.25
CNC(CC(C)C)C(=O)NC1C(=O)NC(CC(N)=O)C(=O)NC2C(=O)NC3C(=O)NC(C(=O)NC(C(=O)O)c4cc(O)cc(O)c4-c4cc3ccc4O)C(O)c3ccc(c(Cl)c3)Oc3cc2cc(c3OC2OC(CN)C(O)C(O)C2OC2CC(C)(NCc3ccc(OCc4ccccc4C(F)(F)F)cc3)C(O)C(C)O2)Oc2ccc(cc2Cl)C1O (stereo not shown) [Compound 180] | 16 | 16 | 2 | 16 | 12.5
CNC(CC(C)C)C(=O)NC1C(=O)NC(CC(N)=O)C(=O)NC2C(=O)NC3C(=O)NC(C(=O)NC(C(=O)O)c4cc(O)cc(O)c4-c4cc3ccc4O)C(O)c3ccc(c(Cl)c3)Oc3cc2cc(c3OC2OC(CN)C(O)C(O)C2OC2CC(C)(NCc3ccc(OCc4ccc(F)cc4Cl)cc3)C(O)C(C)O2)Oc2ccc(cc2Cl)C1O (stereo not shown) [Compound 181] | 16 | 32 | 4 | 32 | 21
CNC(CC(C)C)C(=O)NC1C(=O)NC(CC(N)=O)C(=O)NC2C(=O)NC3C(=O)NC(C(=O)NC(C(=O)O)c4cc(O)cc(O)c4-c4cc3ccc4O)C(O)c3ccc(c(Cl)c3)Oc3cc2cc(c3OC2OC(CN)C(O)C(O)C2OC2CC(C)(NCc3ccc(OCc4ccccc4Cl)cc3)C(O)C(C)O2)Oc2ccc(cc2Cl)C1O (stereo not shown) [Compound 182] | >16 | >16 | 4 | >16 | 13
CNC(CC(C)C)C(=O)NC1C(=O)NC(CC(N)=O)C(=O)NC2C(=O)NC3C(=O)NC(C(=O)NC(C(=O)O)c4cc(O)cc(O)c4-c4cc3ccc4O)C(O)c3ccc(c(Cl)c3)Oc3cc2cc(c3OC2OC(CN)C(O)C(O)C2OC2CC(C)(NCc3ccc(OCc4ccc(Cl)c(Cl)c4)cc3Cl)C(O)C(C)O2)Oc2ccc(cc2Cl)C1O (stereo not shown) [Compound 183] | 8 | 4 | 2 | 2 | 4
CNC(CC(C)C)C(=O)NC1C(=O)NC(CC(N)=O)C(=O)NC2C(=O)NC3C(=O)NC(C(=O)NC(C(=O)O)c4cc(O)cc(O)c4-c4cc3ccc4O)C(O)c3ccc(c(Cl)c3)Oc3cc2cc(c3OC2OC(CN)C(O)C(O)C2OC2CC(C)(NCc3ccc(OCc4ccc(Cl)c(Cl)c4)c(OC)c3)C(O)C(C)O2)Oc2ccc(cc2Cl)C1O (stereo not shown) [Compound 184] | 4 | 4 | 2 | 8 | 4.5
CNC(CC(C)C)C(=O)NC1C(=O)NC(CC(N)=O)C(=O)NC2C(=O)NC3C(=O)NC(C(=O)NC(C(=O)O)c4cc(O)cc(O)c4-c4cc3ccc4O)C(O)c3ccc(c(Cl)c3)Oc3cc2cc(c3OC2OC(CN)C(O)C(O)C2OC2CC(C)(NCc3ccc(OCc4ccc(Cl)c(Cl)c4)cc3OC)C(O)C(C)O2)Oc2ccc(cc2Cl)C1O (stereo not shown) [Compound 185] | 8 | 16 | 4 | 4 | 8
CNC(CC(C)C)C(=O)NC1C(=O)NC(CC(N)=O)C(=O)NC2C(=O)NC3C(=O)NC(C(=O)NC(C(=O)O)c4cc(O)cc(O)c4-c4cc3ccc4O)C(O)c3ccc(c(Cl)c3)Oc3cc2cc(c3OC2OC(CN)C(O)C(O)C2OC2CC(C)(NCc3ccc(Oc4ccc(Cl)c(Cl)c4)cc3)C(O)C(C)O2)Oc2ccc(cc2Cl)C1O (stereo not shown) [Compound 186] | 8 | 8 | 2 | 8 | 6.5
CNC(CC(C)C)C(=O)NC1C(=O)NC(CC(N)=O)C(=O)NC2C(=O)NC3C(=O)NC(C(=O)NC(C(=O)O)c4cc(O)cc(O)c4-c4cc3ccc4O)C(O)c3ccc(c(Cl)c3)Oc3cc2cc(c3OC2OC(CN)C(O)C(O)C2OC2CC(C)(NCc3ccc(C(=O)Oc4ccc(Cl)cc4)cc3)C(O)C(C)O2)Oc2ccc(cc2Cl)C1O (stereo not shown) [Compound 187] | 16 | 16 | 4 | 32 | 17
CNC(CC(C)C)C(=O)NC1C(=O)NC(CC(N)=O)C(=O)NC2C(=O)NC3C(=O)NC(C(=O)NC(C(=O)O)c4cc(O)cc(O)c4-c4cc3ccc4O)C(O)c3ccc(c(Cl)c3)Oc3cc2cc(c3OC2OC(CN)C(O)C(O)C2OC2CC(C)(NCc3ccc(C(=O)Oc4ccc(Cl)c(Cl)c4)cc3)C(O)C(C)O2)Oc2ccc(cc2Cl)C1O (stereo not shown) [Compound 188] | 8 | 16 | 4 | 16 | 11
CNC(CC(C)C)C(=O)NC1C(=O)NC(CC(N)=O)C(=O)NC2C(=O)NC3C(=O)NC(C(=O)NC(C(=O)O)c4cc(O)cc(O)c4-c4cc3ccc4O)C(O)c3ccc(c(Cl)c3)Oc3cc2cc(c3OC2OC(CN)C(O)C(O)C2OC2CC(C)(NCC(=O)Oc3ccc(-c4ccc(Cl)c(Cl)c4)cc3)C(O)C(C)O2)Oc2ccc(cc2Cl)C1O (stereo not shown) [Compound 189] | 32 | >32 | 32 | 32 | 32
